Data as given in patent US9586961B2, “Homopiperazine derivatives as protein tyrosine kinase inhibitors and pharmaceutical use thereof” (LEO PHARMA A/S, priority 2010, dated 2017).

Tests used:
Format in all cases: biochemical
[1] = target: T1, JAK3 (Homo sapiens, UniProt P52333); test: JAK3 kinase assay (HTRF, inhibition of phosphorylation of a synthetic peptide); settings: catalytic domain, His-tag; 2 μM ATP (Km); read-out: JAK3 kinase inhibitory activity (EC50)
T1 construct: All four purified enzymes contain only the catalytic domain; His (N); purchased Carna Biosciences, Inc; host or cells: baculovirus expression system
Summary of the method: (§1)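 HTRF detection (streptavidin-XL665, cryptate anti-phospho antibody, overnight in the dark) after EDTA stop of a 20-30 min RT reaction on 1 μM TK substrate-biotin. Km-level ATP per kinase: 7 μM for JAK1 and 13 μM for TYK2, both N-terminal GST, with 50 nM SEB; 4 μM for JAK2 and 2 μM for JAK3, both His-tagged. Catalytic domains only; DMSO 0.75%.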

[2] = target: T2, JAK2 (Homo sapiens, UniProt O60674); test: JAK2 kinase assay (HTRF, inhibition of phosphorylation of a synthetic peptide); settings: catalytic domain, His-tag; 4 μM ATP (Km); read-out: JAK2 kinase inhibitory activity (EC50)
T2 construct: All four purified enzymes contain only the catalytic domain; His (N); purchased Carna Biosciences, Inc; host or cells: baculovirus expression system
Summary of the method: as §1

[3] = target: T3, JAK1 (Homo sapiens, UniProt P23458); test: JAK1 kinase assay (HTRF, inhibition of phosphorylation of a synthetic peptide); settings: catalytic domain aa 850-1154, GST-tag; 7 μM ATP (Km); read-out: JAK1 kinase inhibitory activity (EC50)
T3 construct: JAK1 (aa 850-1154) and TYK2 (aa 871-1187) are expressed with an N-terminally fused GST-tag; GST (N); purchased Carna Biosciences, Inc; host or cells: baculovirus expression system
Summary of the method: as §1

T2 sequence (O60674 849-1124 limits assumed): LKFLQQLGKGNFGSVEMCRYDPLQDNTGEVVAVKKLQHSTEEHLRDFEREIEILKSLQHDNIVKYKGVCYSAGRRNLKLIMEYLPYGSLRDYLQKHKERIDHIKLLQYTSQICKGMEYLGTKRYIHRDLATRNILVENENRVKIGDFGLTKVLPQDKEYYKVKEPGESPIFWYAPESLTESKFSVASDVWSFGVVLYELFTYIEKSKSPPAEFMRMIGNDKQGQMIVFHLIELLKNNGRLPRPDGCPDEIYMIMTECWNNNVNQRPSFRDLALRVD
T1 sequence (P52333 822-1111 limits assumed): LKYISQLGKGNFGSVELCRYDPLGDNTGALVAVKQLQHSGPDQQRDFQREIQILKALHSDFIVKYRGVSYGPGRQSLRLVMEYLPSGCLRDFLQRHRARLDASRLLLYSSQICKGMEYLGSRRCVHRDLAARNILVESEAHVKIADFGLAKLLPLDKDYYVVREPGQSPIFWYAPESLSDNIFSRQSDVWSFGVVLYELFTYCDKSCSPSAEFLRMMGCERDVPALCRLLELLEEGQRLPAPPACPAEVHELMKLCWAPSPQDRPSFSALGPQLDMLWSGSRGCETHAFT
T3 sequence (P23458 850-1154): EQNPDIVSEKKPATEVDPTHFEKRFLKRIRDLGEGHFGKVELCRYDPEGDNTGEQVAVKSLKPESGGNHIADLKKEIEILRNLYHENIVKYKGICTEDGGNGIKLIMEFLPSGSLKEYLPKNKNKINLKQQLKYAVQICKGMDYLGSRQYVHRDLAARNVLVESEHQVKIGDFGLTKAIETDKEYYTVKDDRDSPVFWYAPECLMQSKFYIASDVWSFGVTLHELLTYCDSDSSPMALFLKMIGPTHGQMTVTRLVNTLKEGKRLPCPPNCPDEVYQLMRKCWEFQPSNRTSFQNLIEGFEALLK

| Structure (SMILES) | EC50 [1] | EC50 [2] | EC50 [3] |
| --- | --- | --- | --- |
| O=C(c1ccc(Cl)cc1)N1CCCN(c2ncnc3[nH]ccc23)CC12CC2 [Example 180, (4-chlorophenyl)-[5-(7H-pyrrolo[2,3-d]pyrimidin-4-yl)-5,9-diazaspiro[2.6]nonan-9-yl]methanone] | 100 to 1000 nM | < 100 nM | < 100 nM |
| O=C(c1ccno1)N1CCCN(c2ncnc3[nH]ccc23)CC12CC2 [Example 181, isoxazol-5-yl-[5-(7H-pyrrolo[2,3-d]pyrimidin-4-yl)-5,9-diazaspiro[2.6]nonan-9-yl]methanone] | 100 to 1000 nM | < 100 nM | < 100 nM |
| O=C(c1cc[nH]n1)N1CCN(c2ncnc3[nH]ccc23)CC2(CC2)C1 [Example 182, 1H-pyrazol-3-yl-[5-(7H-pyrrolo[2,3-d]pyrimidin-4-yl)-5,8-diazaspiro[2.6]nonan-8-yl]methanone] | 100 to 1000 nM | 100 to 1000 nM | 100 to 1000 nM |
| O=C(c1cc[nH]n1)N1CCCN(c2ncnc3[nH]ccc23)CC12CC2 [Example 183, 1H-pyrazol-3-yl-[5-(7H-pyrrolo[2,3-d]pyrimidin-4-yl)-5,9-diazaspiro[2.6]nonan-9-yl]methanone] | 100 to 1000 nM | 100 to 1000 nM | 100 to 1000 nM |
| Cc1cc(CC(=O)N2CCN(c3ncnc4[nH]ccc34)CC3(CC3)C2)on1 [Example 184, 2-(3-methylisoxazol-5-yl)-1-[5-(7H-pyrrolo[2,3-d]pyrimidin-4-yl)-5,8-diazaspiro[2.6]nonan-8-yl]ethanone] | 100 to 1000 nM | < 100 nM | < 100 nM |
| O=C(c1cccc(Cl)c1)N1CCN(c2ncnc3[nH]ccc23)CC2(CC2)C1 [Example 186, (3-chlorophenyl)-[5-(7H-pyrrolo[2,3-d]pyrimidin-4-yl)-5,8-diazaspiro[2.6]nonan-8-yl]methanone] | > 1000 nM | 100 to 1000 nM | 100 to 1000 nM |
| O=C(c1ccccn1)N1CCCN(c2ncnc3[nH]ccc23)CC12CC2 [Example 189, 2-pyridyl-[5-(7H-pyrrolo[2,3-d]pyrimidin-4-yl)-5,9-diazaspiro[2.6]nonan-9-yl]methanone] | > 1000 nM | < 100 nM | 100 to 1000 nM |
| O=C(c1ccnc(O)c1)N1CCN(c2ncnc3[nH]ccc23)CC2(CC2)C1 [Example 190, (2-hydroxy-4-pyridyl)-[5-(7H-pyrrolo[2,3-d]pyrimidin-4-yl)-5,8-diazaspiro[2.6]nonan-8-yl]methanone] | > 1000 nM | 100 to 1000 nM | 100 to 1000 nM |
| Cc1ncoc1C(=O)N1CCN(c2ncnc3[nH]ccc23)CC2(CC2)C1 [Example 191, (4-methyloxazol-5-yl)-[5-(7H-pyrrolo[2,3-d]pyrimidin-4-yl)-5,8-diazaspiro[2.6]nonan-8-yl]methanone] | > 1000 nM | 100 to 1000 nM | 100 to 1000 nM |
| Cc1nnc(C(=O)N2CCN(c3ncnc4[nH]ccc34)CC3(CC3)C2)o1 [Example 194, (5-methyl-1,3,4-oxadiazol-2-yl)-[5-(7H-pyrrolo[2,3-d]pyrimidin-4-yl)-5,8-diazaspiro[2.6]nonan-8-yl]methanone] | > 1000 nM | 100 to 1000 nM | 100 to 1000 nM |
| O=C(c1nc[nH]n1)N1CCN(c2ncnc3[nH]ccc23)CC2(CC2)C1 [Example 195, [5-(7H-pyrrolo[2,3-d]pyrimidin-4-yl)-5,8-diazaspiro[2.6]nonan-8-yl]-(1H-1,2,4-triazol-3-yl)methanone] | > 1000 nM | 100 to 1000 nM | 100 to 1000 nM |
| Cc1cnc(C(=O)N2CCCN(c3ncnc4[nH]ccc34)CC23CC3)cn1 [Example 197, (5-methylpyrazin-2-yl)-[5-(7H-pyrrolo[2,3-d]pyrimidin-4-yl)-5,9-diazaspiro[2.6]nonan-9-yl]methanone] | > 1000 nM | 100 to 1000 nM | 100 to 1000 nM |
| Cc1[nH]ncc1C(=O)N1CCN(c2ncnc3[nH]ccc23)CC2(CC2)C1 [Example 206, (5-methyl-1H-pyrazol-4-yl)-[5-(7H-pyrrolo[2,3-d]pyrimidin-4-yl)-5,8-diazaspiro[2.6]nonan-8-yl]methanone] | 100 to 1000 nM | 100 to 1000 nM | 100 to 1000 nM |
| Cc1[nH]ncc1C(=O)N1CCCN(c2ncnc3[nH]ccc23)CC12CC2 [Example 207, (5-methyl-1H-pyrazol-4-yl)-[5-(7H-pyrrolo[2,3-d]pyrimidin-4-yl)-5,9-diazaspiro[2.6]nonan-9-yl]methanone] | > 1000 nM | 100 to 1000 nM | > 1000 nM |
| N#Cc1c[nH]c(C(=O)N2CCN(c3ncnc4[nH]ccc34)CC3(CC3)C2)c1 [Example 208, 5-[5-(7H-pyrrolo[2,3-d]pyrimidin-4-yl)-5,8-diazaspiro[2.6]nonane-8-carbonyl]-1H-pyrrole-3-carbonitrile] | 100 to 1000 nM | < 100 nM | < 100 nM |
| O=C(c1cnsc1)N1CCN(c2ncnc3[nH]ccc23)CC2(CC2)C1 [Example 210, isothiazol-4-yl-[5-(7H-pyrrolo[2,3-d]pyrimidin-4-yl)-5,8-diazaspiro[2.6]nonan-8-yl]methanone] | 100 to 1000 nM | 100 to 1000 nM | 100 to 1000 nM |

More lines, now with the values ahead:

| EC50 [1] | EC50 [2] | EC50 [3] | Structure (SMILES) |
| --- | --- | --- | --- |
| > 1000 nM | 100 to 1000 nM | 100 to 1000 nM | O=C(c1ccccc1Cl)N1CCN(c2ncnc3[nH]ccc23)CC2(CC2)C1 [Example 185, (2-chlorophenyl)-[5-(7H-pyrrolo[2,3-d]pyrimidin-4-yl)-5,8-diazaspiro[2.6]nonan-8-yl]methanone] |
| 100 to 1000 nM | 100 to 1000 nM | 100 to 1000 nM | Cc1oncc1C(=O)N1CCCN(c2ncnc3[nH]ccc23)CC12CC2 [Example 187, (5-methylisoxazol-4-yl)-[5-(7H-pyrrolo[2,3-d]pyrimidin-4-yl)-5,9-diazaspiro[2.6]nonan-9-yl]methanone] |
| > 1000 nM | 100 to 1000 nM | > 1000 nM | O=C(c1ccccn1)N1CCN(c2ncnc3[nH]ccc23)CC2(CC2)C1 [Example 188, 2-pyridyl-[5-(7H-pyrrolo[2,3-d]pyrimidin-4-yl)-5,8-diazaspiro[2.6]nonan-8-yl]methanone] |
| 100 to 1000 nM | 100 to 1000 nM | 100 to 1000 nM | Cc1ncoc1C(=O)N1CCCN(c2ncnc3[nH]ccc23)CC12CC2 [Example 192, (4-methyloxazol-5-yl)-[5-(7H-pyrrolo[2,3-d]pyrimidin-4-yl)-5,9-diazaspiro[2.6]nonan-9-yl]methanone] |
| > 1000 nM | < 100 nM | 100 to 1000 nM | Cc1cc(C(=O)N2CCCN(c3ncnc4[nH]ccc34)CC23CC3)n(C)n1 [Example 193, (2,5-dimethylpyrazol-3-yl)-[5-(7H-pyrrolo[2,3-d]pyrimidin-4-yl)-5,9-diazaspiro[2.6]nonan-9-yl]methanone] |
| > 1000 nM | > 1000 nM | > 1000 nM | Cc1cnc(C(=O)N2CCN(c3ncnc4[nH]ccc34)CC3(CC3)C2)cn1 [Example 196, (5-methylpyrazin-2-yl)-[5-(7H-pyrrolo[2,3-d]pyrimidin-4-yl)-5,8-diazaspiro[2.6]nonan-8-yl]methanone] |
| > 1000 nM | 100 to 1000 nM | 100 to 1000 nM | Cc1cncc(C(=O)N2CCCN(c3ncnc4[nH]ccc34)CC23CC3)n1 [Example 198, (6-methylpyrazin-2-yl)-[5-(7H-pyrrolo[2,3-d]pyrimidin-4-yl)-5,9-diazaspiro[2.6]nonan-9-yl]methanone] |
| > 1000 nM | > 1000 nM | > 1000 nM | Cc1noc(C)c1C(=O)N1CCCN(c2ncnc3[nH]ccc23)CC12CC2 [Example 199, (3,5-dimethylisoxazol-4-yl)-[5-(7H-pyrrolo[2,3-d]pyrimidin-4-yl)-5,9-diazaspiro[2.6]nonan-9-yl]methanone] |
| 100 to 1000 nM | 100 to 1000 nM | 100 to 1000 nM | O=C(c1ccsn1)N1CCN(c2ncnc3[nH]ccc23)CC2(CC2)C1 [Example 200, isothiazol-3-yl-[5-(7H-pyrrolo[2,3-d]pyrimidin-4-yl)-5,8-diazaspiro[2.6]nonan-8-yl]methanone] |
| 100 to 1000 nM | 100 to 1000 nM | 100 to 1000 nM | O=C(c1cnsn1)N1CCN(c2ncnc3[nH]ccc23)CC2(CC2)C1 [Example 202, [5-(7H-pyrrolo[2,3-d]pyrimidin-4-yl)-5,8-diazaspiro[2.6]nonan-8-yl]-(1,2,5-thiadiazol-3-yl)methanone] |
| 100 to 1000 nM | 100 to 1000 nM | 100 to 1000 nM | O=C(c1c[nH]nn1)N1CCN(c2ncnc3[nH]ccc23)CC2(CC2)C1 [Example 204, [5-(7H-pyrrolo[2,3-d]pyrimidin-4-yl)-5,8-diazaspiro[2.6]nonan-8-yl]-(1H-triazol-4-yl)methanone] |
| 100 to 1000 nM | 100 to 1000 nM | 100 to 1000 nM | O=C(c1c[nH]nn1)N1CCCN(c2ncnc3[nH]ccc23)CC12CC2 [Example 205, [5-(7H-pyrrolo[2,3-d]pyrimidin-4-yl)-5,9-diazaspiro[2.6]nonan-9-yl]-(1H-triazol-4-yl)methanone] |
| 100 to 1000 nM | 100 to 1000 nM | 100 to 1000 nM | O=C(c1cnsc1)N1CCCN(c2ncnc3[nH]ccc23)CC12CC2 [Example 211, isothiazol-4-yl-[5-(7H-pyrrolo[2,3-d]pyrimidin-4-yl)-5,9-diazaspiro[2.6]nonan-9-yl]methanone] |
